The values below come from patent US12570650B2, “6-substituted pyridazine compounds as SMARCA2 and/or SMARCA4 degraders” (Aurigene Oncology Limited, priority 2020, dated 2026).

SMILES strings stand for the structures. pEC50: −log10 of the molar value.

Broadly, the pEC50 is −log10 of the EC50, conventionally taken in molar units. Higher therefore signals a low EC50.

Assay type in all cases: cell-based
One test addresses T1, SMARCA4 (Homo sapiens, UniProt P51532).
T1 construct: Determination of SMARCA2 and SMARCA4 Degradation in VCaP Cells by Western Blot; endogenous in cells; host or cells: VCaP (ATCC CRL-2876)
As to the kind of experiment: SMARCA4 degradation in VCaP cells by Western blot. The following applies: 16 hours. As to the method: On the third day, compounds of present invention were added to cells from 10 mM stocks made in DMSO (Sigma Cat no. D2650). Each concentration of compound was tested with DMSO not exceeding final percentage of 0.3 in the cells. […] Equal amount of protein was loaded on SDS PAGE gel for electrophoresis. […] Percentage of SMARCA2 or SMARCA4 degradation was calculated using formula % Degradation=100−(normalized band intensity in treated sample/normalized band intensity in DMSO sample)*100.
(A western blot detects proteins with antibodies after separation by electrophoresis.)

A further test deals with SK-MEL-5 cells. Put plainly: Anti proliferative activity, Cell Titer Glo assay, SK-MEL-5. The following applies: Homo sapiens, retreatment Day 4, terminated day 8, CellTiter-Glo. How it is done: Example-P3: Determination of Anti Proliferative Activity of Compounds by Cell Titer Glo®(Promega) Assay
Cells were seeded into 96-well plates and the plate was incubated in 37 degrees incubator overnight. The next day, compounds were diluted 3-fold to cover 9-point concentration range in DMSO. Intermediate plate dilution was prepared in media followed with compound treatment in cells. Retreatment of cells with compound dilutions was performed on Day 4 and assay was terminated on day 8 for SK-MEL-5 cells using CellTiter-Glo and the plate was kept on orbital shaker for 20 minutes at RT. Assay was terminated on day 6 for RERF-LC-A1 without a compound retreatment. Luminescence signal was recorded on VICTOR^3 instrument. Percent inhibition of proliferation was calculated at each concentration and plotted against the compound concentration. EC50 value was calculated using GraphPad software.

Another test deals with T2, SMARCA2 (Homo sapiens, UniProt P51531).
T2 construct: Determination of SMARCA2 and SMARCA4 Degradation in VCaP Cells by Western Blot; endogenous in cells; host or cells: VCaP (ATCC CRL-2876)
T2 sequence (P51531 whole entry): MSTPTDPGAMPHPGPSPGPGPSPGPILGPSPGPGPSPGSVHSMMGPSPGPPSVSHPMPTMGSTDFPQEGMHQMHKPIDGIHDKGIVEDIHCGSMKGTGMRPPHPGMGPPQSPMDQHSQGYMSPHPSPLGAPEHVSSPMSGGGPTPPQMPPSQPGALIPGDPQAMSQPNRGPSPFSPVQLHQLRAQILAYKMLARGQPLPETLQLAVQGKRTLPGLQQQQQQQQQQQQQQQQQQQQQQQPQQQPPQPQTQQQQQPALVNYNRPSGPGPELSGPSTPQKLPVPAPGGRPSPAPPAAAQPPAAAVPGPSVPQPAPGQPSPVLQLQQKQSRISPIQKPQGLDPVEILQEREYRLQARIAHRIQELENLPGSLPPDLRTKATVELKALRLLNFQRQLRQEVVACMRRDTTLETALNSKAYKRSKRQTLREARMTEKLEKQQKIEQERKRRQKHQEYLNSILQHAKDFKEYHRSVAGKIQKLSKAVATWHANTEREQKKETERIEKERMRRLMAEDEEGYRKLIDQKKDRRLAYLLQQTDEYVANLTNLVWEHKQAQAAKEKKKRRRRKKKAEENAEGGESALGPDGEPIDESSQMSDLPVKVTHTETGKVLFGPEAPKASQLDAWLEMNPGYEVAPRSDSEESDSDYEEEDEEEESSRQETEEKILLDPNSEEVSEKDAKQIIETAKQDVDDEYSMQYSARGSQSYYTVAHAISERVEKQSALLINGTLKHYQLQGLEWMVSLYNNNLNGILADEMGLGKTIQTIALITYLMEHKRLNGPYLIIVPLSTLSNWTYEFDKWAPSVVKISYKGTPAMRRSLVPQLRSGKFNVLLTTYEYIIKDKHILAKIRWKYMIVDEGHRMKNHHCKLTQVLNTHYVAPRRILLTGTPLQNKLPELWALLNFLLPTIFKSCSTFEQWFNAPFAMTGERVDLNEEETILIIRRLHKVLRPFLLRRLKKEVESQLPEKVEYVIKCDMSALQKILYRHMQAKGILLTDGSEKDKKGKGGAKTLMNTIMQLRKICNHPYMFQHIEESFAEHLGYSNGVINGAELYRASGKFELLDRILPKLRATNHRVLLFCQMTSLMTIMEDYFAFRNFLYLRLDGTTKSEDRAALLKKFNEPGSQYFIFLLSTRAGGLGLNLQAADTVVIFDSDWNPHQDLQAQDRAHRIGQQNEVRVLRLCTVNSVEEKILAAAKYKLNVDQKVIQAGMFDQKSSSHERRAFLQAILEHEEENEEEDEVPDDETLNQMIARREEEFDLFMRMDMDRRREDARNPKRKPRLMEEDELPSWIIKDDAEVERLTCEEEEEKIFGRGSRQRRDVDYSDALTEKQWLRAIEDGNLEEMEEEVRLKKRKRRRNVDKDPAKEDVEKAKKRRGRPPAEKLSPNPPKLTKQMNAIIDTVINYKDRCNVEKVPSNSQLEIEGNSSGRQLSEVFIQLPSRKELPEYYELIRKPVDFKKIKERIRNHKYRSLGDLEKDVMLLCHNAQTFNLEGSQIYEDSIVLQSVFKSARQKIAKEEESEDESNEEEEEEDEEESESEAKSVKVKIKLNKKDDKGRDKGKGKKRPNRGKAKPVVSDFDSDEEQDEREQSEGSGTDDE
Put plainly: SMARCA2 degradation in VCaP cells by Western blot. The following applies: 16 hours. How it is done: Example-P2: Determination of SMARCA2 and SMARCA4 Degradation in VCaP Cells by Western Blot
VCaP (ATCC CRL-2876) was plated in 6 well plates using complete Dulbecco's Modified Eagle's Medium. On the third day, compounds of present invention were added to cells from 10 mM stocks made in DMSO (Sigma Cat no. D2650). Each concentration of compound was tested with DMSO not exceeding final percentage of 0.3 in the cells. Cells were incubated with the compound for 16 hours followed by harvesting with 1×RIPA lysis buffer (Thermo Fischer, catalogue number #89900) containing protease inhibitor cocktail (Sigma catalogue number #P-8340). Equal amount of protein was loaded on SDS PAGE gel for electrophoresis. Western blot was carried out for detection of either SMARCA2 (Cell signalling technologies, catalogue number #11966) or SMARCA4 antibody (Cell signalling technologies, catalogue number #52251). Beta-Tubulin antibody (Cell signalling technologies, catalogue number #86298) was used as loading control. Percentage of SMARCA2 or SMARCA4 degradation was calculated using formula % Degradation=100−(normalized band intensity in treated sample/normalized band intensity in DMSO sample)*100.

T1 sequence (P51532 whole entry): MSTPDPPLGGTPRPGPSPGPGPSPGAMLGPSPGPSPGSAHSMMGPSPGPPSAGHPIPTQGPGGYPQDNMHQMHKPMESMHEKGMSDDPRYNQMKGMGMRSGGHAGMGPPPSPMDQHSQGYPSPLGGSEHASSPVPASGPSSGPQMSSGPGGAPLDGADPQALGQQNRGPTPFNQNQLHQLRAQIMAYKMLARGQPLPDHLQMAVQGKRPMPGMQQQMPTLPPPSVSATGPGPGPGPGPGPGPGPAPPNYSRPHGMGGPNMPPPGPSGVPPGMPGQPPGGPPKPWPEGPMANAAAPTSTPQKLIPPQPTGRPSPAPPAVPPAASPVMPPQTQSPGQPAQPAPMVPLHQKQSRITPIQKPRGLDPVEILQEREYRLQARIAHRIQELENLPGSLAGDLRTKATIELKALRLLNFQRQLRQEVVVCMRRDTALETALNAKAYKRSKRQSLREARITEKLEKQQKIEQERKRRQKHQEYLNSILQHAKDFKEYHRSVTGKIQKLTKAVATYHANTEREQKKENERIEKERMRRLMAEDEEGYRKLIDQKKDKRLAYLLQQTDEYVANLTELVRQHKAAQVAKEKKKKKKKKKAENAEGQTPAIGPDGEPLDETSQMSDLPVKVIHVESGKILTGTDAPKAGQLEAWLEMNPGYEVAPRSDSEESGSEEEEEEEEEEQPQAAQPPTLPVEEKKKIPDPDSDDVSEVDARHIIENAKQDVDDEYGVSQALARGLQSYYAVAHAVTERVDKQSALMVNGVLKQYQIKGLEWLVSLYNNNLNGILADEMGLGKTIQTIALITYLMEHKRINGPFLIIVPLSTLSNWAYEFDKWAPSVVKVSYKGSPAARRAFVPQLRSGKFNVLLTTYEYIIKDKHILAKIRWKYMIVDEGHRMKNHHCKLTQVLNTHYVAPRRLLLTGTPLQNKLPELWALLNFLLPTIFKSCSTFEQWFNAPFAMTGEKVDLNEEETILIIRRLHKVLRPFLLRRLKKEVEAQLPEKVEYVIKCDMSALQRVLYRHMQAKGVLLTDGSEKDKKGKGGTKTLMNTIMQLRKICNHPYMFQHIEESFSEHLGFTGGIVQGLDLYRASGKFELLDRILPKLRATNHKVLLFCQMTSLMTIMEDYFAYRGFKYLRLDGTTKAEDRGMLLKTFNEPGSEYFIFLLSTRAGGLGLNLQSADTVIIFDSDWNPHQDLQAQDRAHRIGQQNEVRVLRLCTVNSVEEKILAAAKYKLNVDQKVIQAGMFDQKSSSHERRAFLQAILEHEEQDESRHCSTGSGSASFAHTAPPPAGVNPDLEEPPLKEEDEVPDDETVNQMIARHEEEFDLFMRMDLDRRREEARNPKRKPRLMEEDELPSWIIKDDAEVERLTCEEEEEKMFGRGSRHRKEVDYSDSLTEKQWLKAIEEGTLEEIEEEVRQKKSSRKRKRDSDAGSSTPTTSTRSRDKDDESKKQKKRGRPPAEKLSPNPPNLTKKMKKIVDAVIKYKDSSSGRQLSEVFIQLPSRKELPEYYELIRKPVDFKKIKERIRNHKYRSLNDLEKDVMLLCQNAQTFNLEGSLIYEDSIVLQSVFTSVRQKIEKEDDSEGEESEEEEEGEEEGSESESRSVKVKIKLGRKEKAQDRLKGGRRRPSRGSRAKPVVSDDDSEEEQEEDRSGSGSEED

For the compound `Cc1ncsc1-c1ccc([C@H](C)NC(=O)[C@@H]2C[C@@H](O)CN2C(=O)[C@@H](NC(=O)C(C)N2CCN(c3ccc(-c4cnnc(-c5ccccc5O)c4)cc3)CC2)C(C)(C)C)cc1` (single isomer, unassigned) [Compound 30], the “Percent degradation (at 100 nM) SMARCA4” value at SMARCA4 was found to be 0%. Also, the pEC50 with SK-MEL-5 cells (SK-MEL-5, SK-MEL-5 cells) was over 6.60. Moreover, on SMARCA2, the “Percent degradation (at 100 nM) SMARCA2” value came to 79%.
The matching figures for `Cc1ncsc1-c1ccc([C@H](C)NC(=O)[C@@H]2C[C@@H](O)CN2C(=O)[C@@H](NC(=O)CN2CCC(c3ccc(-c4cnnc(-c5cc(F)ccc5O)c4)cc3)CC2)C(C)(C)C)cc1` [Compound 13, (2S,4R)-1-((S)-2-(2-(4-(4-(6-(5-fluoro-2-hydroxyphenyl)pyridazin-4-yl)phenyl)piperidin-1-yl)acetamido)-3,3-dimethylbutanoyl)-4-hydroxy-N-((S)-1-(4-(4-methylthiazol-5-yl)phenyl)ethyl)pyrrolidine-2-carboxamide]: 0%, under 6.30 and 17%.
In the same order, the values of `Cc1ncsc1-c1ccc([C@H](C)NC(=O)[C@@H]2C[C@@H](O)CN2C(=O)[C@@H](NC(=O)CN2CCC(c3ccc(-c4cnnc(-c5ccccc5O)c4)cc3F)CC2)C(C)(C)C)cc1` [Compound 15, (2S,4R)-1-((S)-2-(2-(4-(2-fluoro-4-(6-(2-hydroxyphenyl)pyridazin-4-yl)phenyl)piperidin-1-yl)acetamido)-3,3-dimethylbutanoyl)-4-hydroxy-N-((S)-1-(4-(4-methylthiazol-5-yl)phenyl)ethyl)pyrrolidine-2-carboxamide] are 0%, under 6.30 and 60%.
In the case of `Cc1ncsc1-c1ccc([C@H](C)NC(=O)[C@@H]2C[C@@H](O)CN2C(=O)[C@@H](NC(=O)C2CCN(c3ccc(-c4cnnc(-c5ccccc5O)c4)cc3)CC2)C(C)(C)C)cc1` [Compound 16, N-((S)-1-((2S,4R)-4-hydroxy-2-(((S)-1-(4-(4-methylthiazol-5-yl)phenyl)ethyl)carbamoyl)pyrrolidin-1-yl)-3,3-dimethyl-1-oxobutan-2-yl)-1-(4-(6-(2-hydroxyphenyl)pyridazin-4-yl)phenyl)piperidine-4-carboxamide], the “Percent degradation (at 100 nM) SMARCA4” value at SMARCA4 is 0%. This compound gave a pEC50 with SK-MEL-5 cells (SK-MEL-5, SK-MEL-5 cells) of over 6.60. On SMARCA2, the “Percent degradation (at 100 nM) SMARCA2” value was found to be 76%.
With `Cc1ncsc1-c1ccc([C@H](C)NC(=O)[C@@H]2C[C@@H](O)CN2C(=O)[C@@H](NC(=O)CC2CCC(c3ccc(-c4cnnc(-c5ccccc5O)c4)cc3)CC2)C(C)(C)C)cc1` (stereo partly drawn) [Compound 17, (2S,4R)-4-hydroxy-1-((S)-2-(2-(4-(4-(6-(2-hydroxyphenyl)pyridazin-4-yl)phenyl)cyclohexyl)acetamido)-3,3-dimethylbutanoyl)-N-((S)-1-(4-(4-methylthiazol-5-yl)phenyl)ethyl)pyrrolidine-2-carboxamide], the pEC50 in the test with SK-MEL-5 cells (SK-MEL-5, SK-MEL-5 cells) is under 6.30.
The compound `Cc1ncsc1-c1ccc([C@H](C)NC(=O)[C@@H]2C[C@@H](O)CN2C(=O)[C@@H](NC(=O)CN2CCC(c3ccc(-c4cnnc(-c5ccccc5O)c4)cc3)C2)C(C)(C)C)cc1` (stereo partly drawn) [Compound 22, (2S,4R)-4-hydroxy-1-((2S)-2-(2-(3-(4-(6-(2-hydroxyphenyl)pyridazin-4-yl)phenyl)pyrrolidin-1-yl)acetamido)-3,3-dimethylbutanoyl)-N-((S)-1-(4-(4-methylthiazol-5-yl)phenyl)ethyl)pyrrolidine-2-carboxamide] had a pEC50 in the test with SK-MEL-5 cells (SK-MEL-5, SK-MEL-5 cells) of under 6.30.
In turn, `Cc1ncsc1-c1ccc([C@H](C)NC(=O)[C@@H]2C[C@@H](O)CN2C(=O)[C@@H](NC(=O)CN2CCC(c3ccc(-c4cnnc(-c5ccccc5O)c4)cn3)CC2)C(C)(C)C)cc1` [Compound 27, (2S,4R)-4-hydroxy-1-((S)-2-(2-(4-(5-(6-(2-hydroxyphenyl)pyridazin-4-yl)pyridin-2-yl)piperidin-1-yl)acetamido)-3,3-dimethylbutanoyl)-N-((S)-1-(4-(4-methylthiazol-5-yl)phenyl)ethyl)pyrrolidine-2-carboxamide] showed a pEC50 in the test with SK-MEL-5 cells (SK-MEL-5, SK-MEL-5 cells) of under 6.30.
Turning to `Cc1ncsc1-c1ccc([C@H](C)NC(=O)[C@@H]2C[C@@H](O)CN2C(=O)[C@@H](NC(=O)CN2CCN(c3ccc(-c4cnnc(-c5cccc6cc[nH]c56)c4)cc3)CC2)C(C)(C)C)cc1` [Compound 39, (2S,4R)-1-((S)-2-(2-(4-(4-(6-(1H-indol-7-yl)pyridazin-4-yl)phenyl)piperazin-1-yl)acetamido)-3,3-dimethylbutanoyl)-4-hydroxy-N-((S)-1-(4-(4-methylthiazol-5-yl)phenyl)ethyl)pyrrolidine-2-carboxamide], at SMARCA4, the “Percent degradation (at 100 nM) SMARCA4” value is listed as 17%. Moreover, the “Percent degradation (at 100 nM) SMARCA2” value on SMARCA2 is given as 46%.
Consider `Cc1ncsc1-c1ccc([C@H](C)NC(=O)[C@@H]2C[C@@H](O)CN2C(=O)[C@@H](NC(=O)CN2CCN(c3ccc(-c4cnnc(-c5cccc6ccoc56)c4)cc3)CC2)C(C)(C)C)cc1` [Compound 40, (2S,4R)-1-((S)-2-(2-(4-(4-(6-(benzofuran-7-yl)pyridazin-4-yl)phenyl)piperazin-1-yl)acetamido)-3,3-dimethylbutanoyl)-4-hydroxy-N-((S)-1-(4-(4-methylthiazol-5-yl)phenyl)ethyl)pyrrolidine-2-carboxamide], for which the “Percent degradation (at 100 nM) SMARCA4” value at SMARCA4 is 3%. For the same compound, the “Percent degradation (at 100 nM) SMARCA2” value at SMARCA2 is listed as 6%.
Take `Cc1ncsc1-c1ccc([C@H](C)NC(=O)[C@@H]2C[C@@H](O)CN2C(=O)[C@@H](NC(=O)CN2CCN(c3ccc(-c4cnnc(-c5cccc6cn[nH]c56)c4)cc3)CC2)C(C)(C)C)cc1` [Compound 41, (2S,4R)-1-((S)-2-(2-(4-(4-(6-(1H-indazol-7-yl)pyridazin-4-yl)phenyl)piperazin-1-yl)acetamido)-3,3-dimethylbutanoyl)-4-hydroxy-N-((S)-1-(4-(4-methylthiazol-5-yl)phenyl)ethyl)pyrrolidine-2-carboxamide]: the “Percent degradation (at 100 nM) SMARCA4” value on SMARCA4 was determined as 22%. Moreover, at SMARCA2, the “Percent degradation (at 100 nM) SMARCA2” value worked out at 12%.
As to `Cc1ncsc1-c1ccc([C@H](C)NC(=O)[C@@H]2C[C@@H](O)CN2C(=O)[C@@H](NC(=O)CN2CCC(Nc3ccc(-c4cnnc(-c5ccccc5O)c4)cc3)CC2)C(C)(C)C)cc1` [Compound 45, (2S,4R)-4-hydroxy-1-((S)-2-(2-(4-((4-(6-(2-hydroxyphenyl)pyridazin-4-yl)phenyl)amino)piperidin-1-yl)acetamido)-3,3-dimethylbutanoyl)-N-((S)-1-(4-(4-methylthiazol-5-yl)phenyl)ethyl)pyrrolidine-2-carboxamide], in the test with SK-MEL-5 cells (SK-MEL-5 cells), the pEC50 was over 6.60. Further, the “Percent degradation (at 100 nM) SMARCA2” value on SMARCA2 is on record as 94%.
`Cc1ncsc1-c1ccc([C@H](CO)NC(=O)[C@@H]2C[C@@H](O)CN2C(=O)[C@@H](NC(=O)CN2CCN(c3ccc(-c4cnnc(-c5ccccc5O)c4)cc3)CC2)C(C)(C)C)cc1` [Compound 48, (2S,4R)-4-hydroxy-N-((R)-2-hydroxy-1-(4-(4-methylthiazol-5-yl)phenyl)ethyl)-1-((S)-2-(2-(4-(4-(6-(2-hydroxyphenyl)pyridazin-4-yl)phenyl)piperazin-1-yl)acetamido)-3,3-dimethylbutanoyl)pyrrolidine-2-carboxamide]: on SMARCA4, the “Percent degradation (at 100 nM) SMARCA4” value is reported as 21%. In addition, on SMARCA2, the “Percent degradation (at 100 nM) SMARCA2” value stood at 90%.
With `Cc1ncsc1-c1ccc(C(CN(C)C)NC(=O)[C@@H]2C[C@@H](O)CN2C(=O)[C@@H](NC(=O)CN2CCN(c3ccc(-c4cnnc(-c5ccccc5O)c4)cc3)CC2)C(C)(C)C)cc1` (stereo partly drawn) [Compound 49, (2S,4R)-N-(2-(dimethylamino)-1-(4-(4-methylthiazol-5-yl)phenyl)ethyl)-4-hydroxy-1-((S)-2-(2-(4-(4-(6-(2-hydroxyphenyl)pyridazin-4-yl)phenyl)piperazin-1-yl)acetamido)-3,3-dimethylbutanoyl)pyrrolidine-2-carboxamide], the “Percent degradation (at 100 nM) SMARCA4” value at SMARCA4 turned out to be 48%. Moreover, on SMARCA2, the “Percent degradation (at 100 nM) SMARCA2” value amounted to 93%.
